The target in one assay is hPASK (kinase domain) (Homo sapiens (Human), UniProt Q96RG2). Nature of the assay: PAS Kinase Luminescence Assay (Kinase-Glo), kinase domain. The format is biochemical. Here is the method:
(§1) PAS Kinase Luminescence Assay
(§2) One assay for purified hPASK activity utilizes the Kinase-Glo Luminescent Kinase Assay (Promega), which quantifies the amount of ATP remaining in solution following kinase reaction. The assay is carried out in a 96-well plate format and is performed by adding a volume of Kinase-Glo Reagent (Promega, catalog #V3771) equal to the volume of solution in the well of a completed kinase reaction. Kinase-Glo reagent contains Luciferase and its substrate. After addition to a kinase reaction it allows to measure luminescence. The amount of ATP left in solution at the time of Kinase-Glo Plus addition is directly proportional to the luminescence that is measured in each well, and inversely correlated with kinase activity.
(§3) Purified hPASK from insect cells (0.02 μg) is added to a 50 μL reaction mix containing 40 mM HEPES (pH 7.0), 100 mM KCl, 5 mM MgCl2, 1 mM DTT and 1 μg of MBP protein. Inhibitory compounds are then added and the mixture is incubated for 10 min at 25° C. before adding 5 μL of ATP (at desired concentration). The reaction is allowed to proceed at 25° C. for 1 hour before adding 50 μL of Kinase-Glo reagent. The luminescence is measured as soon as 10 minutes after Kinase-Glo reagent is added.
(§4) Results are shown below in Table 1, where NT means not tested.

Another assay deals with hPASK (full length) (Homo sapiens (Human), UniProt Q96RG2). Nature of the assay: PAS Kinase Luminescence Assay (Kinase-Glo), full length. The format is biochemical. Here is the method:
as §1, §2, §3, §4
A general note: In Kinase-Glo more light means more ATP remaining.

The next assay concerns the target CK2a2 (Homo sapiens (Human), UniProt P19784). Nature of the assay: Biochemical Assay for CK2 Activity. Particulars: 33P-ATP radiochemical assay; read-out: IC50 CK2 a2. The gist of the method:
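GST-tagged full-length human CK2a2 from insect cells (1.2 nM) with 20 μM RRRDDDSDDD peptide, in pH 7.5 HEPES buffer with MgCl2, DTT and 1% DMSO. Reactions started with ³³P-ATP were run for 120 min at room temperature. Substrate phosphorylation was measured by P81 phosphocellulose filter binding and scintillation counting.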

The target in assay [1] is PASK (UniProt #Q96RG2; residues 879-1323) (Homo sapiens (Human), UniProt Q96RG2). The experiment in a line: PASK ATP Radiochemical Assay. Particulars: 33P-ATP radiochemical assay; read-out: IC50 Kinase Domain. The format is biochemical. The gist of the method:
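Radiometric kinase assay: GST-tagged PASK (5 nM final) from insect cells with Myelin Basic Protein (20 μM) in HEPES pH 7.5 buffer, 1% DMSO; reaction started with ^33P-ATP, 120 min at room temperature. Substrate phosphorylation captured on P81 paper and read by scintillation counting.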

The target in assay [2] is PASK (Homo sapiens (Human), UniProt Q96RG2). The experiment in a line: PAS Kinase FRET Assay. The format is biochemical. Particulars: TR-FRET assay; read-out: IC50 Kinase Domain. The gist of the method:
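Reaction buffer: 50 mM HEPES, 10 mM MgCl2, 1 mM EGTA, 2 mM DTT, 0.01% Tween-20. Test compounds (eleven-point series prepared at 4× final) preceded PASK and substrate/ATP. Reaction ran 2 h at 25 °C in the dark, then stopped. Phospho-ULight peptide detected by Eu-antibody TR-FRET, 665/615 nm ratio.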
Background: TR-FRET usually uses a lanthanide donor and a delayed reading to cut background.

Chain of hPASK (kinase domain) (Q96RG2 999-1251): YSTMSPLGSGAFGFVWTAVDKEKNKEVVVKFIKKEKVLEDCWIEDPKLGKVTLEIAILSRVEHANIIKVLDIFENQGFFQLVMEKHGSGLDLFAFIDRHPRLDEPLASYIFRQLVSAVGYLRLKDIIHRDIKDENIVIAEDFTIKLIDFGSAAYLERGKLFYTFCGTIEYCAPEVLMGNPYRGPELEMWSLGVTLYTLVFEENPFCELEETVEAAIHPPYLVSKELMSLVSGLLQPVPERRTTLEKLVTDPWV
Chain of PASK (Homo sapiens (Human), UniProt Q96RG2) (Q96RG2 999-1251): as above
Chain of hPASK (full length) (Q96RG2 whole entry): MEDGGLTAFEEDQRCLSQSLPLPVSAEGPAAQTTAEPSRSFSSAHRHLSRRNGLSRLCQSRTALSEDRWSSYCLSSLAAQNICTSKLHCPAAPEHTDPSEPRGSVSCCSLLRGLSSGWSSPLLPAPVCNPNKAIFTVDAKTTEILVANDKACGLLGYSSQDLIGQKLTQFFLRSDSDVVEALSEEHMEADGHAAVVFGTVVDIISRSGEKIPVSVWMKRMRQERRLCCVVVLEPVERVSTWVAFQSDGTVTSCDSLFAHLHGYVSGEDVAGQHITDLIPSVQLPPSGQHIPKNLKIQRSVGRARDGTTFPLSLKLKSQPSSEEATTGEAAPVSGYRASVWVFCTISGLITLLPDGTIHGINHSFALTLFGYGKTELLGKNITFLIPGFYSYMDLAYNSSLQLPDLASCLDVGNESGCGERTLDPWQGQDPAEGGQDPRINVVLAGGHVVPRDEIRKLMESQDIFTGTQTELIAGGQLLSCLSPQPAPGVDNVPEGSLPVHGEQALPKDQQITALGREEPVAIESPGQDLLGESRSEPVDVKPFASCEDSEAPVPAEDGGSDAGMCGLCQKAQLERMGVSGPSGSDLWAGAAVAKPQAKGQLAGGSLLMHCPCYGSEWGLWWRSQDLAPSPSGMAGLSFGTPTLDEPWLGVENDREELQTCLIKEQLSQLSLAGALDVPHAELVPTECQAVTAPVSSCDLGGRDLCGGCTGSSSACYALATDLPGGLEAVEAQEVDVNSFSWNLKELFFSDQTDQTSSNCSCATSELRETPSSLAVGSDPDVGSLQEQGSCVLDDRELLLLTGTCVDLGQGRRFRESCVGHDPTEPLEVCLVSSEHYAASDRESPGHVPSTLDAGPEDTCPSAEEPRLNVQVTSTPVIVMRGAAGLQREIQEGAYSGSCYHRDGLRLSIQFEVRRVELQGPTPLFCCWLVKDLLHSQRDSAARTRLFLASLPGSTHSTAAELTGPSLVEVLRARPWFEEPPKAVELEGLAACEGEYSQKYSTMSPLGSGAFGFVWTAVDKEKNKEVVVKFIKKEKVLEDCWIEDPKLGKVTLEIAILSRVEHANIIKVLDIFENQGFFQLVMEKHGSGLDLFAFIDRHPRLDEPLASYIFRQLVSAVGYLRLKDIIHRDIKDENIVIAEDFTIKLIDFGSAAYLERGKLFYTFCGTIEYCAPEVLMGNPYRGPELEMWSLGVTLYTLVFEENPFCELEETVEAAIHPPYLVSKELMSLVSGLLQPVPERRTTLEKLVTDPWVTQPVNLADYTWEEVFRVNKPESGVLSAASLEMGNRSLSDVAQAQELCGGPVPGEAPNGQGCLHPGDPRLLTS
Chain of CK2a2 (P19784 whole entry): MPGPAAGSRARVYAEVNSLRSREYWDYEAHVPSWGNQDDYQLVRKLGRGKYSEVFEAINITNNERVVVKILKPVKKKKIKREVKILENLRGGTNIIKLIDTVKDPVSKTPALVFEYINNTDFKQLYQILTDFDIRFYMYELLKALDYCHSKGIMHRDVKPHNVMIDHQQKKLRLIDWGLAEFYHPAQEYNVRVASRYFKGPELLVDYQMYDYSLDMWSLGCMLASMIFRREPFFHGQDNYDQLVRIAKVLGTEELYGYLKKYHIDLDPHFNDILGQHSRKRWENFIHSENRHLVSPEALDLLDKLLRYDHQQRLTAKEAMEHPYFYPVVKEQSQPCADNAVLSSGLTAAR
Chain of PASK (UniProt #Q96RG2; residues 879-1323) (Homo sapiens (Human), UniProt Q96RG2) (Q96RG2 879-1323): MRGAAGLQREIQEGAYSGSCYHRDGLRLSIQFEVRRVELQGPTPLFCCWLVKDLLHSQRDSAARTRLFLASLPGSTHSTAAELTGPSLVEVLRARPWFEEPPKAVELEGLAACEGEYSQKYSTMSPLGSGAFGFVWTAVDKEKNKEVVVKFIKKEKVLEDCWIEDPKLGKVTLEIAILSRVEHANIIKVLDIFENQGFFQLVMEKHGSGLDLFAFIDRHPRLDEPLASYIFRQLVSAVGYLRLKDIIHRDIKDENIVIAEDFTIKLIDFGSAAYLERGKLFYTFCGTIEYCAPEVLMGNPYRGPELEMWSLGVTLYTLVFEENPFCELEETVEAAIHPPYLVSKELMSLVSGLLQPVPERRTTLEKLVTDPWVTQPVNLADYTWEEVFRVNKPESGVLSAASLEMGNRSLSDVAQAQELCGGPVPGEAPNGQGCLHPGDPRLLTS

Turning to `Cc1nn2c(=O)cc(-c3ccc([N+](=O)[O-])cc3)[nH]c2c1-c1ccc(Cl)cc1` [Example 1, 3-(4-Chloro-phenyl)-2-methyl-5-(4-nitro-phenyl)-4H-pyrazolo[1,5-a]pyrimidin-7-one], the IC50 against hPASK (kinase domain) and at hPASK (full length) was no more than 10 µM in each case.
`Cc1cc(=O)n2nc(-c3ccc(Cl)cc3)cc2[nH]1` [Example 2, 2-(4-Chloro-phenyl)-5-methyl-4H-pyrazolo[1,5-a]pyrimidin-7-one]: the IC50 (usually the point on the concentration scale where inhibition reaches its midpoint) on hPASK (kinase domain) is no less than 10 µM; at hPASK (full length) it was no more than 10 µM.
With `Cc1[nH]c2c(-c3ccc(Cl)cc3)cnn2c(=O)c1Cc1ccccc1` [Example 3, 6-Benzyl-3-(4-chloro-phenyl)-5-methyl-4H-pyrazolo[1,5-a]pyrimidin-7-one], the IC50 against hPASK (kinase domain) and against hPASK (full length) was no more than 10 µM each time.
At hPASK (kinase domain), `Cc1cc(=O)n2nc(-c3cccc(Br)c3)cc2[nH]1` [Example 4, 2-(3-Bromo-phenyl)-5-methyl-4H-pyrazolo[1,5-a]pyrimidin-7-one] yielded a concentration for half-maximal inhibition (IC50) of no more than 10 µM.
In the case of `COc1ccc(-c2c(Cc3ccccc3)nn3c(=O)cc(-c4ccccc4)[nH]c23)cc1` [Example 5, 2-Benzyl-3-(4-methoxy-phenyl)-5-phenyl-4H-pyrazolo[1,5-a]pyrimidin-7-one], the IC50 is no more than 10 µM on hPASK (kinase domain) and no less than 10 µM at hPASK (full length).
For `COc1ccc(-c2c(C)nn3c(=O)cc(-c4ccccc4)[nH]c23)cc1` [Example 6, 3-(4-Methoxy-phenyl)-2-methyl-5-phenyl-4H-pyrazolo[1,5-a]pyrimidin-7-one] the same measures were no more than 10 µM and no less than 10 µM.
For `O=c1cc(-c2ccccc2)[nH]c2c(-c3ccccc3)c(Cc3ccccc3)nn12` [Example 7, 2-Benzyl-3,5-diphenyl-4H-pyrazolo[1,5-a]pyrimidin-7-one], in that order: no more than 10 µM and no less than 10 µM.
For `Cc1nn2c(=O)cc(-c3ccccc3)[nH]c2c1-c1ccc(Cl)cc1` [Example 8, 3-(4-Chloro-phenyl)-2-methyl-5-phenyl-4H-pyrazolo[1,5-a]pyrimidin-7-one] the same measures were no more than 10 µM and no more than 10 µM.
On hPASK (kinase domain), `COc1ccc(-c2c(C)nn3c(=O)cc(-c4ccccc4)[nH]c23)cc1` [Example 20, 3-(4-Methoxy-phenyl)-2-methyl-5-phenyl-4H-pyrazolo[1,5-a]pyrimidin-7-one] returned an IC50 of no less than 10 µM.
Take `O=c1cc(-c2ccc3c(c2)OCCO3)[nH]c2c(-c3ccccc3)cnn12` [Example 40, 5-(2,3-Dihydrobenzo[b][1,4]dioxin-6-yl)-3-phenylpyrazolo[1,5-a]pyrimidin-7(4H)-one]: the 50% inhibitory concentration (IC50) against hPASK (kinase domain) and at CK2a2 was no more than 10 µM each time.
Consider `Cc1nn2c(=O)cc(-c3ccc4c(c3)OCCO4)[nH]c2c1-c1ccccc1` [Example 41, 5-(2,3-Dihydrobenzo[b][1,4]dioxin-6-yl)-2-methyl-3-phenylpyrazolo[1,5-a]pyrimidin-7(4H)-one], for which the IC50 against hPASK (kinase domain) was no more than 10 µM.
The same measure, in the same setting: for `O=c1cc(-c2ccc3c(c2)OCO3)[nH]c2c(-c3ccccc3)cnn12` [Example 42, 5-(Benzo[d][1,3]dioxol-5-yl)-3-phenylpyrazolo[1,5-a]pyrimidin-7(4H)-one] the value was no more than 10 µM.
Consider `Cc1nn2c(=O)cc(-c3ccc4c(c3)OCO4)[nH]c2c1-c1ccccc1` [Example 43, 5-(Benzo[d][1,3]dioxol-5-yl)-2-methyl-3-phenylpyrazolo[1,5-a]pyrimidin-7(4H)-one], for which the IC50 against hPASK (kinase domain) and at CK2a2 was no more than 10 µM in each case.
Turning to `O=c1cc(-c2ccc3c(c2)OCCO3)[nH]c2c(-c3ccccn3)cnn12` [Example 44, 5-(2,3-Dihydrobenzo[b][1,4]dioxin-6-yl)-3-(pyridin-2-yl)pyrazolo[1,5-a]pyrimidin-7(4H)-one], the IC50 at hPASK (kinase domain) and on CK2a2 was no more than 10 µM each time.
Consider `O=c1cc(-c2ccc3c(c2)OCCO3)[nH]c2c(-c3cccnc3)cnn12` [Example 45, 5-(2,3-Dihydrobenzo[b][1,4]dioxin-6-yl)-3-(pyridin-3-yl)pyrazolo[1,5-a]pyrimidin-7(4H)-one], for which the IC50 against hPASK (kinase domain) and on CK2a2 was no more than 10 µM in each case.
Molecule `O=c1cc(-c2ccc3c(c2)OCO3)[nH]c2c(-c3cccnc3)cnn12` [Example 46, 5-(Benzo[d][1,3]dioxol-5-yl)-3-(pyridin-3-yl)pyrazolo[1,5-a]pyrimidin-7(4H)-one] had an IC50 against hPASK (kinase domain) of no more than 10 µM.
`Cc1nn2c(=O)cc(-c3ccc4c(c3)OCO4)[nH]c2c1-c1ccccn1` [Example 48, 5-(Benzo[d][1,3]dioxol-5-yl)-2-methyl-3-(pyridin-2-yl)pyrazolo[1,5-a]pyrimidin-7(4H)-one]: the IC50 against hPASK (kinase domain) and on CK2a2 was no more than 10 µM in each case.
At hPASK (kinase domain), `Cc1nn2c(=O)cc(-c3ccc4c(c3)OCO4)[nH]c2c1-c1cccnc1` [Example 49, 5-(Benzo[d][1,3]dioxol-5-yl)-2-methyl-3-(pyridin-3-yl)pyrazolo[1,5-a]pyrimidin-7(4H)-one] yielded an IC50 of no more than 10 µM.
For `Cc1nn2c(=O)cc(-c3ccc4c(c3)OCCO4)[nH]c2c1-c1ccccn1` [Example 50, 5-(2,3-Dihydrobenzo[b][1,4]dioxin-6-yl)-2-methyl-3-(pyridin-2-yl)pyrazolo[1,5-a]pyrimidin-7(4H)-one], the IC50 on hPASK (kinase domain) and at CK2a2 was no more than 10 µM throughout.
As to `Cc1nn2c(=O)cc(-c3ccc4c(c3)OCCO4)[nH]c2c1-c1cccnc1` [Example 51, 5-(2,3-Dihydrobenzo[b][1,4]dioxin-6-yl)-2-methyl-3-(pyridin-3-yl)pyrazolo[1,5-a]pyrimidin-7(4H)-one], the IC50 on hPASK (kinase domain) and on CK2a2 was no more than 10 µM each time.
Turning to `O=c1cc(-c2ccccc2)[nH]c2c(-c3ccccn3)cnn12` [Example 52, 5-Phenyl-3-(pyridin-2-yl)pyrazolo[1,5-a]pyrimidin-7(4H)-one], at hPASK (kinase domain), the IC50 was no more than 10 µM.
`Cc1nn2c(=O)cc(-c3ccc4cc[nH]c4c3)[nH]c2c1Cc1ccccc1` [Example 74, 3-Benzyl-5-(1H-indol-6-yl)-2-methylpyrazolo[1,5-a]pyrimidin-7(4H)-one]: the IC50 was no more than 10 µM at hPASK (kinase domain), no more than 10 µM on PASK [1] and no less than 10 µM on CK2a2.
With `O=c1cc(-c2cccnc2)[nH]c2c(-c3ccc(F)cc3)cnn12` [Example 78, 3-(4-Fluorophenyl)-5-(pyridin-3-yl)pyrazolo[1,5-a]pyrimidin-7(4H)-one], the IC50 against hPASK (kinase domain) was no more than 10 µM.
With `COc1cc2[nH]nnc2cc1-c1cc(=O)n2nc(N)c(-c3ccccn3)c2[nH]1` [Example 243, 2-Amino-5-(6-methoxy-1H-benzo[d][1,2,3]triazol-5-yl)-3-(pyridin-2-yl)pyrazolo[1,5-a]pyrimidin-7(4H)-one], the IC50 at PASK [1] is no more than 10 µM; on CK2a2, no less than 10 µM; at PASK [2], no more than 10 µM.
Regarding `COc1c(-c2cc(=O)n3ncc(-c4ccccn4)c3[nH]2)ccc2[nH]nnc12` [Example 245, 5-(4-Methoxy-1H-benzo[d][1,2,3]triazol-5-yl)-3-(pyridin-2-yl)pyrazolo[1,5-a]pyrimidin-7(4H)-one], the IC50 at PASK [1], at CK2a2 and on PASK [2] was no more than 10 µM each time.
`O=c1cc(-c2cc3nn[nH]c3cc2F)[nH]c2c(-c3ccccn3)cnn12` [Example 249, 5-(6-Fluoro-1H-benzo[d][1,2,3]triazol-5-yl)-3-(pyridin-2-yl)pyrazolo[1,5-a]pyrimidin-7(4H)-one]: the IC50 at PASK [1], on CK2a2 and at PASK [2] was no more than 10 µM each time.
Regarding `O=c1cc(-c2ccc(-c3ncco3)cc2)[nH]c2c(-c3ccccn3)cnn12` [Example 254, 5-(4-(Oxazol-2-yl)phenyl)-3-(pyridin-2-yl)pyrazolo[1,5-a]pyrimidin-7(4H)-one], the IC50 is no more than 10 µM on PASK [1], no less than 10 µM at CK2a2 and no more than 10 µM on PASK [2].
Regarding `N#Cc1ccc(-c2cc(=O)n3ncc(-c4ccccn4)c3[nH]2)cc1` [Example 256, 4-(7-Oxo-3-(pyridin-2-yl)-4,7-dihydropyrazolo[1,5-a]pyrimidin-5-yl)benzonitrile], the results for the IC50 on PASK [1], at CK2a2 and at PASK [2] were no more than 10 µM, no less than 10 µM and no more than 10 µM, respectively.

The values above are taken from patent US10953012B2, “Heterocyclic compounds for the inhibition of pask” (BioEnergenix LLC, priority 2011, dated 2021).
